Test results: ChEMBL document CHEMBL3286114, “Dual RXR Agonists and RAR Antagonists Based on the Stilbene Retinoid Scaffold” (ACS Med Chem Lett, 2014)
The source made the active and inactive calls. No cut-off for these calls is given here.

How the values were obtained:
Assay type in all cases: cell-based
[1] = target: T1, Retinoic acid receptor RXR-beta (Homo sapiens) (UniProt P28702); experiment: Agonist activity at Gal4-fused human RXR-beta transfected in human HeLa cells after 12 hrs by luciferase reporter gene assay
T1 sequence (whole entry): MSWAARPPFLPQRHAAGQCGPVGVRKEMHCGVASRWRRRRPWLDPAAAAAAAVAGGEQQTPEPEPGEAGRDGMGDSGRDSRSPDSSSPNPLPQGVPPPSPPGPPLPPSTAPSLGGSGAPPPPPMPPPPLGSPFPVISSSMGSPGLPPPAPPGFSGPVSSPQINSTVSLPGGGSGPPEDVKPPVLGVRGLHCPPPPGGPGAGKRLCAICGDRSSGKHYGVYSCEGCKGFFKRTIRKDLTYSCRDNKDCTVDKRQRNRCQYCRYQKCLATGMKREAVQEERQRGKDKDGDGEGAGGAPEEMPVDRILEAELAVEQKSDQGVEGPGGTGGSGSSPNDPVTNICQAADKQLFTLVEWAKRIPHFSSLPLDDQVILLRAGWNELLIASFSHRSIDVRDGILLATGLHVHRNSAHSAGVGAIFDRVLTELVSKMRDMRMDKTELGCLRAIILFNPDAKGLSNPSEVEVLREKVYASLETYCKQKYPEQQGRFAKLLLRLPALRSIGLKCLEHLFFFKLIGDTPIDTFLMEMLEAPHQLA

[2] = target: T2, Retinoic acid receptor alpha (Mus musculus) (UniProt P11416); experiment: Agonist activity at Gal4-fused mouse RAR-alpha transfected in human HeLa cells at 1 uM after 12 hrs by luciferase reporter gene assay
T2 sequence (whole entry): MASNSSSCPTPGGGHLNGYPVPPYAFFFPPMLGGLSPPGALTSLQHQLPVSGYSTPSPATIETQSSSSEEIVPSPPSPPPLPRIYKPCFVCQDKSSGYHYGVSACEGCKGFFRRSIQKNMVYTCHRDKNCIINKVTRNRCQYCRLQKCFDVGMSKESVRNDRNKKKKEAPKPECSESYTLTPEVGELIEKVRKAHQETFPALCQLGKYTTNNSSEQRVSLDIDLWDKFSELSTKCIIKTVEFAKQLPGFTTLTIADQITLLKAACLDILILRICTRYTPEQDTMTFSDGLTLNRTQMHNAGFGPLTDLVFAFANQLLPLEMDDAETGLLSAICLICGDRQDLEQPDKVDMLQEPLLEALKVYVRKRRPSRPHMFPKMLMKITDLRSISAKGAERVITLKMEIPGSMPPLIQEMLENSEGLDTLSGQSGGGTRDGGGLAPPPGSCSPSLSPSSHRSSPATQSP

[3] = target: T3, Retinoic acid receptor beta (Mus musculus) (UniProt P22605); experiment: Agonist activity at Gal4-fused mouse RAR-beta transfected in human HeLa cells at 1 uM after 12 hrs by luciferase reporter gene assay
T3 sequence (whole entry): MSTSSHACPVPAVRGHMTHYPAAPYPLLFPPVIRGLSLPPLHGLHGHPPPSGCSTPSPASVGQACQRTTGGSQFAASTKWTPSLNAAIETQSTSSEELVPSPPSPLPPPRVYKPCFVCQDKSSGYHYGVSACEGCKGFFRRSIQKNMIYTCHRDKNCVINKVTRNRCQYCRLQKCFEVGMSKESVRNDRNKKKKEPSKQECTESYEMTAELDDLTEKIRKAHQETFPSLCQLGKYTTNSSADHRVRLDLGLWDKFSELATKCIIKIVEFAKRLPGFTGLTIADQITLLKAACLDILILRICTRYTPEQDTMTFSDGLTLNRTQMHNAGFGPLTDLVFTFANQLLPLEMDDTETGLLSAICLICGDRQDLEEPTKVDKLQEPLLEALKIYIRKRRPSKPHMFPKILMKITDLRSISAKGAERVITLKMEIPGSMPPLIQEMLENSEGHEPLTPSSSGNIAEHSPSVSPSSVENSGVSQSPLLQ

[4] = target: T4, Retinoic acid receptor gamma (Mus musculus) (UniProt P18911); experiment: Agonist activity at Gal4-fused mouse RAR-gamma transfected in human HeLa cells at 1 uM after 12 hrs by luciferase reporter gene assay
T4 sequence (whole entry): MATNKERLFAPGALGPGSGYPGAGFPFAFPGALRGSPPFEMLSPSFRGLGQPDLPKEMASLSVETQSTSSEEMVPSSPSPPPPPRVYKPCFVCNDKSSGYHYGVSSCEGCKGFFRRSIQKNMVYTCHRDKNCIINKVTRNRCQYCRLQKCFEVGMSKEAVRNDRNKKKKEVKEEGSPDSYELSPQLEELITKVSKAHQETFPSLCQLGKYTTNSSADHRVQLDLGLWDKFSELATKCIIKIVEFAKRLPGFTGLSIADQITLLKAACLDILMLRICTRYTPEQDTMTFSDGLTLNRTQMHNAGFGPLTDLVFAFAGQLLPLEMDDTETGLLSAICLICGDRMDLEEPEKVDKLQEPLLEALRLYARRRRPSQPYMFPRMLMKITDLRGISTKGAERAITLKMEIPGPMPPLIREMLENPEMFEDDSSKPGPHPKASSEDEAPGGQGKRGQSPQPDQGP

[5] = target: T1, Retinoic acid receptor RXR-beta (Homo sapiens); experiment: Agonist activity at Gal4-fused human RXR-beta transfected in human HeLa cells at 51 nM after 12 hrs by luciferase reporter gene assay relative to control
[6] = target: T1, Retinoic acid receptor RXR-beta (Homo sapiens); experiment: Agonist activity at Gal4-fused human RXR-beta transfected in human HeLa cells at 125 nM after 12 hrs by luciferase reporter gene assay relative to control
[7] = target: T1, Retinoic acid receptor RXR-beta (Homo sapiens); experiment: Agonist activity at Gal4-fused human RXR-beta transfected in human HeLa cells at 875 nM after 12 hrs by luciferase reporter gene assay relative to control
[8] = target: T1, Retinoic acid receptor RXR-beta (Homo sapiens); experiment: Agonist activity at Gal4-fused human RXR-beta transfected in human HeLa cells at 541 nM after 12 hrs by luciferase reporter gene assay relative to control
[9] = target: T2, Retinoic acid receptor alpha (Mus musculus); experiment: Antagonist activity at Gal4-fused mouse RAR-alpha transfected in human HeLa cells after 12 hrs by luciferase reporter gene assay
[10] = target: T3, Retinoic acid receptor beta (Mus musculus); experiment: Antagonist activity at Gal4-fused mouse RAR-beta transfected in human HeLa cells after 12 hrs by luciferase reporter gene assay
[11] = target: T4, Retinoic acid receptor gamma (Mus musculus); experiment: Antagonist activity at Gal4-fused mouse RAR-gamma transfected in human HeLa cells after 12 hrs by luciferase reporter gene assay
[12] = target: T2, Retinoic acid receptor alpha (Mus musculus); experiment: Agonist activity at Gal4-fused mouse RAR-alpha transfected in human HeLa cells after 12 hrs by luciferase reporter gene assay
[13] = target: T3, Retinoic acid receptor beta (Mus musculus); experiment: Agonist activity at Gal4-fused mouse RAR-beta transfected in human HeLa cells at 10 uM after 12 hrs by luciferase reporter gene assay
[14] = target: T4, Retinoic acid receptor gamma (Mus musculus); experiment: Agonist activity at Gal4-fused mouse RAR-gamma transfected in human HeLa cells at 10 uM after 12 hrs by luciferase reporter gene assay
[15] = target: T3, Retinoic acid receptor beta (Mus musculus); experiment: Agonist activity at Gal4-fused mouse RAR-beta transfected in human HeLa cells at >1 uM after 12 hrs by luciferase reporter gene assay

| Structure (SMILES) | Activity [1] | Activity [2] | Activity [3] | Activity [4] | fold change (FC) [5] | fold change (FC) [6] | fold change (FC) [7] | fold change (FC) [8] | Activity [9] | Activity [10] | Activity [11] | Activity [12] | Activity [13] | Activity [14] | Activity [15] |
| --- | --- | --- | --- | --- | --- | --- | --- | --- | --- | --- | --- | --- | --- | --- | --- |
| O=C(O)c1ccc(/C=C/c2ccc3c(-c4ccccc4)ccc(-c4ccccc4)c3c2)c(F)c1 | Active | inactive | inactive | inactive | 15 | 15 | 15 | 15 | Active | Active | Active |  |  |  |  |
| C/C(=C\c1ccc(C(=O)O)cc1)c1ccc2c(c1)C(C)(C)CCC2(C)C |  |  |  |  | 15 | 15 | 15 | 15 |  |  |  |  |  |  |  |
| O=C(O)c1ccc(/C=C/c2ccc3c(-c4ccccc4)ccc(-c4ccccc4)c3c2)c(Br)c1 | Active | inactive | inactive | inactive | 15 | 15 | 15 | 15 | Active | Active | Active |  |  |  |  |
| O=C(O)c1ccc(/C=C/c2ccc3c(-c4ccccc4)ccc(-c4ccccc4)c3c2)cc1 | Active | inactive | inactive | inactive | 15 | 15 | 15 | 15 | Active | Active | Active |  |  |  |  |
| O=C(O)c1ccc(NC(=O)c2ccc3c(-c4ccccc4)ccc(-c4ccccc4)c3c2)c(Cl)c1 |  |  |  |  |  |  |  |  |  |  |  | inactive | Active | Active |  |
| O=C(O)c1ccc(NC(=O)c2ccc3c(-c4ccccc4)ccc(-c4ccccc4)c3c2)cc1 |  |  |  |  |  |  |  |  |  |  |  | inactive | Active | Active | Active |
| O=C(O)c1ccc(NC(=O)c2ccc3c(-c4ccccc4)ccc(-c4ccccc4)c3c2)c(F)c1 |  |  |  |  |  |  |  |  |  |  |  | inactive | Active | Active |  |
